Measurements: patent publication US9056875B2, “Substituted pyrazolo[3′,4′:4,5]thieno[2,3-C]pyridazin-3-amine analogs as positive allosteric modulators of the muscarinic acetylcholine receptor M4” (Vanderbilt University, priority 2012, dated 2015)
Where two headings read alike, the source gives them in different places.

Molecular target: T1, mAChR rM4 (Rattus norvegicus, UniProt P08485)
T1 construct: expressed in transfected cells
T1 sequence (P08485 1-478): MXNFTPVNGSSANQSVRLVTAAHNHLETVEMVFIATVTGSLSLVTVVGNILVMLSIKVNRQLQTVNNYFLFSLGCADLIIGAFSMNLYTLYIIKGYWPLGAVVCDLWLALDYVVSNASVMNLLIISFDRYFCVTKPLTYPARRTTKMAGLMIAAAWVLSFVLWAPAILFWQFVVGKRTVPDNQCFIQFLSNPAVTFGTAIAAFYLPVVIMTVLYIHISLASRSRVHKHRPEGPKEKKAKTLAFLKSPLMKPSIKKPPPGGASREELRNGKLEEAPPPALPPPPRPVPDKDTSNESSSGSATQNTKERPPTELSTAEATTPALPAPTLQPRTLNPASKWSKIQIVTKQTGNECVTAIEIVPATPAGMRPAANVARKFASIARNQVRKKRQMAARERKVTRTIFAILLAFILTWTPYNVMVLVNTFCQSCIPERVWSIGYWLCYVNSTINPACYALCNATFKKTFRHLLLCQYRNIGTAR
Test: mAChR rM4 cell-based functional assay (calcium mobilization, potentiation of EC20 acetylcholine response)
Conditions: for Emax at 30 µM: %ACh maximum at 30 μM; for EC50: rM4-transfected CHO-K1 cells, positive allosteric modulation of EC20 ACh response
Text: Chinese hamster ovary (CHO-K1) cells stably expressing rat (r)M1 were purchased from the American Type Culture Collection and cultured according to their indicated protocol. CHO cells stably expressing human (h)M2, hM3, and hM5 were described previously (Levey A I, et al., (1991) J Neurosci 11:3218-3226.); hM1 and hM4 cDNAs were purchased from Missouri S&T cDNA Resource; rM4 cDNA was provided by T. I. Bonner (National Institutes of Health, Bethesda, Md.). rM2 and rM3 were cloned from a rat brain cDNA library and sequence verified. hM1, rM2, rM3, hM4, and rM4 cDNAs were used to stably transfect CHO-K1 cells purchased from the American Type Culture Collection using Lipofectamine® 2000. To make stable rM2, hM2, rM3, hM4, and rM4 cell lines for use in calcium mobilization assays, these cells also were stably transfected with a chimeric G-protein (Gqi5) (provided by B. R. Conklin, University of California, San Francisco) using Lipofectamine® 2000. rM1, hM1, rM3, hM3, rM5, and hM5 cells were grown in Ham's F-12 medium containing 10% heat-inactivated fetal bovine serum (FBS), 20 mM HEPES, and 50 μg/mL G418 sulfate. rM2-Gqi5, hM2-Gqi5, and hM4-Gqi5 cells were grown in the same medium also containing 500 μg/mL hygromycin B. Stable rM4-Gqi5 cells were grown in DMEM containing 10% heat-inactivated FBS, 20 mM HEPES, 400 μg/mL G418 sulfate, and 500 μg/mL Hygromycin B.
For high throughput measurement of agonist-evoked increases in intracellular calcium, CHO-K1 cells stably expressing the target muscarinic receptor were plated in growth medium lacking G418 and hygromycin at 15,000 cells/20 μL/well in Greiner 384-well black-walled, tissue culture (TC)-treated, clear-bottom plates (VWR). Cells were incubated overnight at 37° C. and 5% CO2. The next day, cells were washed using an ELX 405 (BioTek) with four washes (80 μL) of assay buffer then aspirated to 20 μL. Next, 20 μL of 16 μM Fluo-4/acetoxymethyl ester (Invitrogen, Carlsbad, Calif.) prepared as a 2.3 mM stock in DMSO and mixed in a 1:1 ratio with 10% (w/v) Pluronic F-127 and diluted in assay buffer was added to the wells and the cell plates were incubated for […] at 37° C. and 5% CO2. Dye was removed by washing with the ELX 405 (four 80 μL washes of assay buffer) then aspirated to 20 μL. Compound master plates were formatted in an 11 point CRC format (1:3 dilutions) in 100% DMSO with a starting concentration of 10 mM using the BRAVO liquid handler (Agilent). Test compound CRCs were then transferred to daughter plates (240 nL) using the Echo acoustic plate reformatter (Labcyte, Sunnyvale, Calif.) and then diluted into assay buffer (40 μL) to a 2× stock using a Thermo Fisher Combi (Thermo Fisher Scientific, Waltham, Mass.).
Calcium flux was measured using the Functional Drug Screening System (FDSS) 6000 (Hamamatsu Corporation, Tokyo, Japan) as an increase in the fluorescent static ratio. Compounds were applied to cells (20 μL, 2×) using the automated system of the FDSS 6000 at 4 s into the 300 s protocol and the data were collected at 1 Hz. At 144 s into the 300 s protocol, 10 μL of an EC20 concentration of the muscarinic receptor agonist acetylcholine was added (5×), followed by the addition of 12 μL an EC80 concentration of acetylcholine at the 230 s time point (5×). Agonist activity was analyzed as a concentration-dependent increase in calcium mobilization upon compound addition. Positive allosteric modulator activity was analyzed as a concentration-dependent increase in the EC20 acetylcholine response. Antagonist activity was analyzed as a concentration-dependent decrease in the EC80 acetylcholine response. Concentration-response curves were generated using a four-parameter logistical equation in XLfit™ curve fitting software (IDBS, Bridgewater, N.J.) for Excel (Microsoft, Redmond, Wash.) or Prism (GraphPad Software, Inc., San Diego, Calif.). […]

Emax at 30 µM [%]	EC50 (read-out: EC50) [nM]	EC50 (read-out: pEC50 (converted)) [nM]	SMILES
44	1800		CC(=O)N1CCC(CNc2nn(C)c3c2sc2nnc(C)c(C)c23)CC1 [Compound 23, 1-(4-(((1,7,8-trimethyl-1H-pyrazolo[3′,4′:4,5]thieno[2,3-c]pyridazin-3-yl)amino)methyl)piperidin-1-yl)ethanone]
58	1100		Cc1nnc2sc3c(NC4CCN(S(C)(=O)=O)CC4)nn(C)c3c2c1C [Compound 19, 1,7,8-trimethyl-N-(1-(methylsulfonyl)piperidin-4-yl)-1H-pyrazolo[3′,4′:4,5]thieno[2,3-c]pyridazin-3-amine]
55	500		Cc1cc(CNc2nn(C)c3c2sc2nnc(C)c(C)c23)no1 [Compound 12, 1,7,8-trimethyl-N-((5-methylisoxazol-3-yl)methyl)-1H-pyrazolo[3′,4′:4,5]thieno[2,3-c]pyridazin-3-amine]
51	1400		Cc1nnc2sc3c(NC4CNC4)nn(C)c3c2c1C [Compound 16, N-(azetidin-3-yl)-1,7,8-trimethyl-1H-pyrazolo[3′,4′:4,5]thieno[2,3-c]pyridazin-3-amine]
55		12.9	Cc1nnc2sc3c(NCc4ccc5c(c4)OCCO5)nn(C)c3c2c1C [Compound 13, N-((2,3-dihydrobenzo[b][1,4]dioxin-6-yl)methyl)-1,7,8-trimethyl-1H-pyrazolo[3′,4′:4,5]thieno[2,3-c]pyridazin-3-amine]
64	63		Cc1nnc2sc3c(NC4CN(S(C)(=O)=O)C4)nn(C)c3c2c1C [Compound 15, 1,7,8-trimethyl-N-(1-(methylsulfonyl)azetidin-3-yl)-1H-pyrazolo[3′,4′:4,5]thieno[2,3-c]pyridazin-3-amine]
69	170		CC(=O)N1CC(Nc2nn(C)c3c2sc2nnc(C)c(C)c23)C1 [Compound 14, 1-(3-((1,7,8-trimethyl-1H-pyrazolo[3′,4′:4,5]thieno[2,3-c]pyridazin-3-yl)amino)azetidin-1-yl)ethanone]
55	48		COc1ccc(CNc2nn(C)c3c2sc2nnc(C)c(C)c23)cc1 [Compound 1, N-(4-methoxybenzyl)-1,7,8-trimethyl-1H-pyrazolo[3′,4′:4,5]thieno[2,3-c]pyridazin-3-amine]
	> 10000		Cc1nnc2sc3c(NCC4CCNCC4)nn(C)c3c2c1C [Compound 22, 1,7,8-trimethyl-N-(piperidin-4-ylmethyl)-1H-pyrazolo[3′,4′:4,5]thieno[2,3-c]pyridazin-3-amine]
47	210		Cc1nnc2sc3c(NC4CCN(C(=O)OC(C)(C)C)CC4)nn(C)c3c2c1C [Compound 17, tert-butyl 4-((1,7,8-trimethyl-1H-pyrazolo[3′,4′:4,5]thieno[2,3-c]pyridazin-3-yl)amino)piperidine-1-carboxylate]
31	5200		Cc1nnc2sc3c(NC4CCNCC4)nn(C)c3c2c1C [Compound 18, 1,7,8-trimethyl-N-(piperidin-4-yl)-1H-pyrazolo[3′,4′:4,5]thieno[2,3-c]pyridazin-3-amine]
61	2500		Cc1nnc2sc3c(NCC4CCN(S(C)(=O)=O)CC4)nn(C)c3c2c1C [Compound 24, 1,7,8-trimethyl-N-((1-(methylsulfonyl)piperidin-4-yl)methyl)-1H-pyrazolo[3′,4′:4,5]thieno[2,3-c]pyridazin-3-amine]
53		30.9	Cc1nnc2sc3c(NCc4cccs4)nn(C)c3c2c1C [Compound 10, 1,7,8-trimethyl-N-(thiophen-2-ylmethyl)-1H-pyrazolo[3′,4′:4,5]thieno[2,3-c]pyridazin-3-amine]
58		25.1	Cc1nnc2sc3c(NC4CN(C(=O)OC(C)(C)C)C4)nn(C)c3c2c1C [Compound 9, tert-butyl 3-((1,7,8-trimethyl-1H-pyrazolo[3′,4′:4,5]thieno[2,3-c]pyridazin-3-yl)amino)azetidine-1-carboxylate]
60		38.9	Cc1nnc2sc3c(NCc4ccoc4)nn(C)c3c2c1C [Compound 7, N-(furan-3-ylmethyl)-1,7,8-trimethyl-1H-pyrazolo[3′,4′:4,5]thieno[2,3-c]pyridazin-3-amine]
46	340		Cc1nnc2sc3c(NCC4CC4)nn(C)c3c2c1C [Compound 3, N-(cyclopropylmethyl)-1,7,8-trimethyl-1H-pyrazolo[3′,4′:4,5]thieno[2,3-c]pyridazin-3-amine]
55	400		Cc1nnc2sc3c(NC4CCOC4)nn(C)c3c2c1C (stereo not drawn) [Compound 8, 1,7,8-trimethyl-N-(tetrahydrofuran-3-yl)-1H-pyrazolo[3′,4′:4,5]thieno[2,3-c]pyridazin-3-amine]
54		14.1	Cc1nnc2sc3c(NCc4ccc(F)c(S(C)(=O)=O)c4)nn(C)c3c2c1C [Compound 5, N-(4-fluoro-3-(methylsulfonyl)benzyl)-1,7,8-trimethyl-1H-pyrazolo[3′,4′:4,5]thieno[2,3-c]pyridazin-3-amine]
50	180		Cc1nnc2sc3c(NCc4ccco4)nn(C)c3c2c1C [Compound 4, N-(furan-2-ylmethyl)-1,7,8-trimethyl-1H-pyrazolo[3′,4′:4,5]thieno[2,3-c]pyridazin-3-amine]
56	55		Cc1ncsc1CNc1nn(C)c2c1sc1nnc(C)c(C)c12 [Compound 11, 1,7,8-trimethyl-N-((4-methylthiazol-5-yl)methyl)-1H-pyrazolo[3′,4′:4,5]thieno[2,3-c]pyridazin-3-amine]
51	1800		CC(=O)N1CCC(Nc2nn(C)c3c2sc2nnc(C)c(C)c23)CC1 [Compound 20, 1-(4-((1,7,8-trimethyl-1H-pyrazolo[3′,4′:4,5]thieno[2,3-c]pyridazin-3-yl)amino)piperidin-1-yl)ethanone]
56	97		Cc1nnc2sc3c(NC4CCSC4)nn(C)c3c2c1C (stereo not drawn) [Compound 6, 1,7,8-trimethyl-N-(tetrahydrothiophen-3-yl)-1H-pyrazolo[3′,4′:4,5]thieno[2,3-c]pyridazin-3-amine]
57	130		Cc1nnc2sc3c(NCc4ccc(S(C)(=O)=O)cc4)nn(C)c3c2c1C [Compound 2, 1,7,8-trimethyl-N-(4-(methylsulfonyl)benzyl)-1H-pyrazolo[3′,4′:4,5]thieno[2,3-c]pyridazin-3-amine]
